Measurements published in PubChem BioAssay AID2060336 (Molecular Pharmacology Branch, DTP, NCI, 2025).

Test system: 958767-090-R-J1-PDC spheroid growth
Assay: Anticancer human tumor 958767-090-R-J1-PDC patient-derived head and neck squamous carcinoma cell line growth inhibition [IpAb]
Conditions: spheroids with HUVEC and MSC; for IC50: curve of first compound; for viability, T/C: stronger effect = lower value
Method in brief: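 Spheroids of 60% malignant cells, 25% HUVEC and 15% MSC were exposed to targeted agents combined with ipatasertib or abemaciclib. Doses started at or near clinical Cmax (10 microM when unknown) and fell in half-log steps.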

[1] = second compound 0.1 µM, first compound 0.0316 µM
[2] = second compound 0.1 µM, first compound 0.1 µM
[3] = second compound 0.1 µM, first compound 0.316 µM
[4] = second compound 0.1 µM, first compound 1 µM
[5] = second compound 0.316 µM, first compound 0.0316 µM
[6] = second compound 0.316 µM, first compound 0.1 µM
[7] = second compound 0.316 µM, first compound 0.316 µM
[8] = second compound 0.316 µM, first compound 1 µM
[9] = second compound 1 µM, first compound 0.0316 µM
[10] = second compound 1 µM, first compound 0.1 µM
[11] = second compound 1 µM, first compound 0.316 µM
[12] = second compound 1 µM, first compound 1 µM
[13] = second compound 3.16 µM, first compound 0.0316 µM
[14] = second compound 3.16 µM, first compound 0.1 µM
[15] = second compound 3.16 µM, first compound 0.316 µM
[16] = second compound 3.16 µM, first compound 1 µM
[17] = second compound 10 µM, first compound 0.0316 µM
[18] = second compound 10 µM, first compound 0.1 µM
[19] = second compound 10 µM, first compound 0.316 µM
[20] = second compound 10 µM, first compound 1 µM
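Throughout, for viability, T/C: 100% = DMSO vehicle control wells.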

SMILES | IC50 (second compound 0.1 µM) [nM] | IC50 (second compound 0.316 µM) [nM] | IC50 (second compound 1 µM) [nM] | IC50 (second compound 3.16 µM) [nM] | IC50 (second compound 10 µM) [nM] | viability, T/C [1] [%] | viability, T/C [2] [%] | viability, T/C [3] [%] | viability, T/C [4] [%] | viability, T/C [5] [%] | viability, T/C [6] [%] | viability, T/C [7] [%] | viability, T/C [8] [%] | viability, T/C [9] [%] | viability, T/C [10] [%] | viability, T/C [11] [%] | viability, T/C [12] [%] | viability, T/C [13] [%] | viability, T/C [14] [%] | viability, T/C [15] [%] | also measured
COc1c(OCCCN2CCOCC2)ccc2c3n(c(=NC(=O)c4cnc(N)nc4)nc12)CCN3 + CC(C)NCC(C(=O)N1CCN(c2ncnc3c2C(C)CC3O)CC1)c1ccc(Cl)cc1 | 14.1 | 4.43 | < 3.16 | < 3.16 | < 3.16 | 36.6 | 22.6 | 9.18 | 4.85 | 25.7 | 15.6 | 6.21 | 3.9 | 26.6 | 15.5 | 5.63 | 3.82 | 20.9 | 11.5 | 6.46 | viability, T/C (second compound 0.1 µM, first compound 0.00316 µM): 78%; viability, T/C (second compound 0.1 µM, first compound 0.01 µM): 55.2%; viability, T/C (second compound 0.316 µM, first compound 0.00316 µM): 52.9%; viability, T/C (second compound 0.316 µM, first compound 0.01 µM): 43.2%; viability, T/C (second compound 1 µM, first compound 0.00316 µM): 42.1%; viability, T/C (second compound 1 µM, first compound 0.01 µM): 32.6%; viability, T/C (second compound 3.16 µM, first compound 0.00316 µM): 41.7%; viability, T/C (second compound 3.16 µM, first compound 0.01 µM): 24.8%; viability, T/C [16]: 3.61%; viability, T/C (second compound 10 µM, first compound 0.00316 µM): 28.3%; viability, T/C (second compound 10 µM, first compound 0.01 µM): 19.8%; viability, T/C [17]: 14.1%; viability, T/C [18]: 9.67%; viability, T/C [19]: 4.23%; viability, T/C [20]: 3.22%
Cc1nc(NC(=O)N2CCCC2C(N)=O)sc1-c1ccnc(C(C)(C)C(F)(F)F)c1 (stereo not given) + CC(C)NCC(C(=O)N1CCN(c2ncnc3c2C(C)CC3O)CC1)c1ccc(Cl)cc1 | 136 | 63.5 | < 31.6 | < 31.6 | < 31.6 | 72.7 | 49.6 | 38.1 | 34.2 | 54.4 | 49.1 | 32.3 | 26.7 | 46.6 | 32.7 | 30.9 | 20.9 | 38.4 | 28.4 | 24.2 | viability, T/C (second compound 0.1 µM, first compound 3.16 µM): 20.7%; viability, T/C (second compound 0.1 µM, first compound 10 µM): 12.2%; viability, T/C (second compound 0.316 µM, first compound 3.16 µM): 16.2%; viability, T/C (second compound 0.316 µM, first compound 10 µM): 11.1%; viability, T/C (second compound 1 µM, first compound 3.16 µM): 15.6%; viability, T/C (second compound 1 µM, first compound 10 µM): 9.52%; viability, T/C [16]: 18.3%; viability, T/C (second compound 3.16 µM, first compound 3.16 µM): 14.4%; viability, T/C (second compound 3.16 µM, first compound 10 µM): 7.8%; viability, T/C [17]: 31.6%; viability, T/C [18]: 24.6%; viability, T/C [19]: 16.5%; viability, T/C [20]: 10.8%; viability, T/C (second compound 10 µM, first compound 3.16 µM): 9.96%; viability, T/C (second compound 10 µM, first compound 10 µM): 5.52%
